From patent publication US5942527A, “Hydrazones, hydrazines, semicarbazones and thiosemicarbazones derived from pyridyl ketones as anticonvulsant drugs and excitatory amino acid antagonists” (K & K Biosciences, Inc., priority 1997, dated 1999) come the findings set out here.

Data set [1] concerns maximal electroshock seizures. The experiment in a line: Maximal electroshock seizure (MES) test, mouse, i.p. Format: in vivo, mouse (male Carworth Farms #1). Particulars: for ASP Group Classification, MES Test: mouse, 30, 100 and 300 mg/kg. An excerpt:
The hydrazones, hydrazines and semicarbazones derived from pyridyl ketones and the resulting orally effective anticonvulsant compositions of this invention are useful in the treatment of convulsive disorders. […] A series of hydrazones, hydrazines and semicarbazones derived from pyridyl ketones of this invention has been evaluated for anticonvulsant activity by the intraperitoneal (i.p.) and by the oral (p.o.) route using two standard seizure models in the mouse and in the rat, the maximal electroshock seizure (MES) test and the subcutaneous pentylenetetrazole (Metrazole) seizure threshold (scMet) test. […] In addition, the compounds are evaluated in a new model, the threshold tonic extension (TTE) model. […] Thus active compounds that may be missed in the MES and […] the mouse, i.p., can be detected in the TTE test. Based on the screening results, the compounds are placed in one of three categories. […] Class II compounds show anticonvulsant activity at doses greater than 100 mg/kg or show activity at 100 mg/kg which is not reinforced by similar activity at 300 mg/kg. […] The Class I compounds are those which are most promising as anticonvulsants. […] In mice. i.p.: All compounds are emulsified in 0.5% methylcellulose. The solvent has been tested for anticonvulsant and toxic effects and found to introduce no significant bias into the testing of anticonvulsant activity. The compounds are administered intraperitoneally in a volume of 0.01 ml/gm to male Carworth Farms #1 mice weighing about 20 gm. All compounds are tested at least at three dose levels (30, 100 and 300 mg/kg) at 30 minutes and 4 hours after their administration. The Maximal Electroshock Seizure Test (MES): Maximal electroshock seizures are elicited with a 60 Hz alternating current of 50 mA intensity in mice and about 150 mA intensity in rats (5-7 times that necessary to elicit minimal electroshock seizures), delivered for 0.2 sec via corneal electrodes. A drop of 0.9% saline is instilled in the eye prior to application of the electrodes in order to […]. Abolition of the hind limb tonic extension component of the seizure is defined as protection and results are expressed as number of animals protected/number of animals tested. Anticonvulsant Quantification in Mice, i.p.: The ED50 values are determined in the MES, scMet and rotorod ataxia test.
On the technique in general: Protection in the maximal electroshock model is a classic sign of anticonvulsant action.

Data set [2] deals with TTE seizure. Kind of data set: Threshold tonic extension (TTE) test, mouse, i.p. The data set is classed as in vivo. From the text: (§1) The hydrazones, hydrazines and semicarbazones derived from pyridyl ketones and the resulting orally effective anticonvulsant compositions of this invention are useful in the treatment of convulsive disorders. […] A series of hydrazones, hydrazines and semicarbazones derived from pyridyl ketones of this invention has been evaluated for anticonvulsant activity by the intraperitoneal (i.p.) and by the oral (p.o.) route using two standard seizure models in the mouse and in the rat, the maximal electroshock seizure (MES) test and the subcutaneous pentylenetetrazole (Metrazole) seizure threshold (scMet) test. […] In addition, the compounds are evaluated in a new model, the threshold tonic extension (TTE) model. […] Thus active compounds that may be missed in the MES and scMet tests in the mouse, i.p., can be detected in the TTE test.
The Threshold Tonic Extension (TTE) Test: The TTE test (Piredda et al., 1985) is a clinically nonselective, electroconvulsive seizure model that identifies compounds that raise seizure threshold as well as those that prevent seizure spread. […] The test is similar to the MES screen but uses a lower level of electrical current. The lower current makes the TTE test more sensitive but less discriminate than the MES screen. This ability makes the model attractive because it allows us to identify compounds that may be missed by our standard identification screen.
Twenty mice are pretreated intraperitoneally with 100 mg/kg of the test substance. At several time intervals (1/4, 1/2, 1, 2, and 4 hours) post treatment with the test drug, four mice at each time point are challenged with 12.5 mA of electrical current for 0.2 seconds via corneal electrodes. This produces a TTE seizure in the animals (Woodbury and Davenport, 1952).
For each time interval results are expressed as a ratio of the number of animals protected over the number tested. […] The positives may represent compounds acting by novel mechanisms.

Data set [3] deals with maximal electroshock seizures. Kind of data set: Maximal electroshock seizure (MES) test, rat, p.o. Format: in vivo, rat (Sprague-Dawley). The following applies: for ED50 / responders at 30 mg/kg: po; for responders at 30 mg/kg: several time points over a 4 hour period, read-out: Percent Protection at 30 mg/kg, in the MES test; for P.I., TD50/ED50, MES: Table 6. An excerpt:
The hydrazones, hydrazines and semicarbazones derived from pyridyl ketones and the resulting orally effective anticonvulsant compositions of this invention are useful in the treatment of convulsive disorders. […] A series of hydrazones, hydrazines and semicarbazones derived from pyridyl ketones of this invention has been evaluated for anticonvulsant activity by the intraperitoneal (i.p.) and by the oral (p.o.) route using two standard seizure models in the mouse and in the rat, the maximal electroshock seizure (MES) test and the subcutaneous pentylenetetrazole (Metrazole) seizure threshold (scMet) test. […] In addition, the compounds are evaluated in a new model, the threshold tonic extension (TTE) model. […] Thus active compounds that may be missed in the MES and […] the mouse, i.p., can be detected in the TTE test. The Maximal Electroshock Seizure Test (MES): Maximal electroshock seizures are elicited with a 60 Hz alternating current of 50 mA intensity in mice and about 150 mA intensity in rats (5-7 times that necessary to elicit minimal electroshock seizures), delivered for 0.2 sec via corneal electrodes. A drop of 0.9% saline is instilled in the eye prior to application of the electrodes in order to […]. Abolition of the hind limb tonic extension component of the seizure is defined as protection and results are expressed as number of animals protected/number of animals tested. […] This species will be the subject of the complete anticonvulsant quantification test evaluation as described above, but after oral (gavage) administration of the candidate compound.

The subject of data set [4] is subcutaneous pentylenetetrazole (Metrazole) seizure. The experiment in a line: Subcutaneous pentylenetetrazole (Metrazole) seizure threshold test (scMet), rat, p.o. The data set is classed as in vivo, rat (Sprague-Dawley). The following applies: po, rats, Table 6.
Description: as §1
(§2) The Subcutaneous Pentylenetetrazol (Metrazole) Seizure Treshold Test (scMET): A 0.5 % solution of 85 mg/kg of pentylenetetrazole is administered subcutaneously in the posterior midline 30 minutes or 4 hours after drug administration to the animal. Failure to observe even a threshold seizure (a single episode of clonic spasms of at least 5 sec duration) is defined as protection and the results are expressed as number of animals protected/number of animals tested.
(§3) This species will be the subject of the complete anticonvulsant quantification test evaluation as described above, but after oral (gavage) administration of the candidate compound.

Data set [5] is described as follows: in vivo. More on the design: species or system rat (Sprague-Dawley). The following applies: rat, po. As for the experimental part:
(§4) Neurotoxicity is determined by the rotorod ataxia test in mice and by the positional sense test and gait and stance test in the rat.
as §3
Neurological deficit in rats is examined by the positional sense test and gait and stance test. […] Inability to do so rapidly indicates a neurologic deficit. In the gait and stance test, a neurologic deficit is indicated by a circular or a zigzag gait, ataxia, abnormal spread of the legs, abnormal body posture, tremor, hyperactivity, lack of exploratory behavior, somnolence, stupor, or catalepsy.

For data set [6], the system named is subcutaneous pentylenetetrazole (Metrazole) seizure. Kind of data set: Subcutaneous pentylenetetrazole (Metrazole) seizure threshold test (scMet), mouse, i.p. Format: in vivo, mouse (male Carworth Farms #1). The following applies: ip, mice, Table 5.
Description: as §1
In mice. i.p.: All compounds are emulsified in 0.5% methylcellulose. The solvent has been tested for anticonvulsant and toxic effects and found to introduce no significant bias into the testing of anticonvulsant activity. The compounds are administered intraperitoneally in a volume of 0.01 ml/gm to male Carworth Farms #1 mice weighing about 20 gm. All compounds are tested at least at three dose levels (30, 100 and 300 mg/kg) at 30 minutes and 4 hours after their administration.
as §2
(§5) Anticonvulsant Quantification in Mice, i.p.: The ED50 values are determined in the MES, scMet and rotorod ataxia test.

The nature of data set [7]: in vivo. The arrangement: species or system mouse (male Carworth Farms #1). Particulars: mouse, ip. The method, then:
as §4
Neurotoxicity is evaluated in mice by the rotorod ataxia test. The animal is placed on a wooden rod of 1 and 1/8" diameter rotating at 6 rpm. Normal mice can remain on a rod rotating at this speed indefinitely.
as §5

[8] abbreviates: Mus musculus, ip, mice, Table 5.
[9] abbreviates: Rattus norvegicus, rats, Table 6, read-out: ED50, MES.

Consider `CC(=NNc1ccc(Cl)c(Cl)c1)c1ccncc1` [Compound 1, Methyl 4-pyridyl ketone 3,4-dichlorophenylhydrazone], for which, in data set [1], the “ASP Group Classification, MES Test” value was “III (Those failing to demonstrate anticonvulsant activity at doses up to 300 mg/kg are considered inactive)”. Moreover, the ED50 is 71 mg/kg in data set [2] (setting [8]); 16.9 mg/kg in data set [3] (setting [9]); 16.9 mg/kg in data set [3] (rat, Table 7, read-out: Anticonvulsant Efficacy (ED50, mg/kg) in the MES Test); above 250 mg/kg in data set [4]. In addition, in data set [2] (mouse, 100 mg/kg), the “ASP Group Classification, TTE Test” value was “I (They demonstrate anticonvulsant activity in either the MES test or the scMet test, or both at doses of 100 mg/kg or 30 mg/kg without signs of neurological deficit and thus have an estimated protective index of greater than 1)”. For the same compound, in data set [2] (mouse, 100 mg/kg), the “TTE Test (Percent Protection)” value was 62%. Also, the responders at 30 mg/kg in data set [3] (rat) was in the range of 25 to 95%. Further, in data set [3] (rats), the “P.I., TD50/ED50, MES” value was above 29.64. In data set [5], this compound returned a TD50 above 500 mg/kg.

Turning to `CC(=NNc1cccc(Cl)c1)c1ccncc1` [Compound 3, Methyl 4-pyridyl ketone 3-chlorophenyl hydrazone], the ED50 is 81.8 mg/kg in data set [1] (setting [8]), 36.6 mg/kg in data set [3] (setting [9]), above 500 mg/kg in data set [6] and above 250 mg/kg in data set [4]. Also, the “P.I., TD50/ED50, MES” value is reported as 5.39 in data set [1] (mice, Table 5) and above 13.65 in data set [3] (rats). Further, the “ASP Group Classification, MES Test” value in data set [1] is reported as “II (show anticonvulsant activity at doses greater than 100 mg/kg or show activity at 100 mg/kg which is not reinforced by similar activity at 300 mg/kg)”. Moreover, the responders at 30 mg/kg in data set [3] (rat) was 50 to 100%. Further, the TD50 in data set [7] was 441 mg/kg; in data set [5] it was above 500 mg/kg.
